Values joined by “and” are separate entries in the source; they are usually repeats but may differ in a detail not shown here. Equal entries are not always repeated.
What was measured:
galanin receptor = test: Galanin Agonism/Antagonism, rat ileum; assay type: cell-based; details: Peptide 30 μM
Method: For in vivo assay, distilled water and saline was used as vehicle in oral and intraperitoneal administration, respectively. Dosing volume was 20 ml/kg for mice or 10 ml/kg for rats.
A segment of ileum obtained from Wistar derived male or female rats weighing 275±25 gms and sacrificed by CO2 overexposure was used. The tissue was placed under 1 g tension in a 10 ml bath containing Kreb's solution pH 7.4 at 32° C. Test substance (30 μM)-induced contraction 50 percent or more (≧50%) within 5 minutes, relative to control 0.1 μM galanin response, indicated possible galanin receptor agonist activity. Atha test substance concentration where no significant agonist activity was seen, ability to reduce the galanin-induced contractile response […] or more (≧50%) indicated galanin receptor antagonist activity. Each concentration was tested on two separate preparations.

histamine H3 receptor = target: T1, histamine H3 receptor (Cavia porcellus, UniProt Q9JI35); test: Histamine H3 Agonism/Antagonism, guinea pig ileum; assay type: cell-based; details: Peptide 30 μM, Thioperamide 0.3 μM
T1 construct: ileum obtained from Duncan Hartley derived male or female guinea pigs; from tissue; host or cells: guinea pig ileum segment, field-stimulated
Method: A segment of ileum obtained from Duncan Hartley derived male or female guinea pigs weighing 325±25 gms and sacrificed by CO2 overexposure were used. The tissue was placed under 0.5 g tension in a 10 ml bath containing Kreb's solution pH 7.4 and pyrilamine (0.3 μM) at 32° C. and subjected to field stimulation (70% of maximum voltage, 0.1 Hz, 0.5 millisecond). Test substance (30 μM)-induced reduction of isometrically recorded contractions 50 percent or more (≧50%) within 5 minutes, relative to control 0.3 μM R-α-methylhistamine response, indicated possible histamine H3 receptor agonist activity. At a test substance concentration where no significant agonist activity was seen, ability to inhibit R-α-methylhistamine-induced response by 50 percent or more (≧50%) indicated histamine H3 receptor antagonist activity. Each concentration was tested on two separate preparations.

Collagenase IV = target: T2, Collagenase IV (Homo sapiens, UniProt P14780); test: Collagenase IV enzyme assay; assay type: biochemical; details: 100.0 μM; average of duplicate; negative = stimulation
T2 construct: human U937; endogenous in cells; host or cells: U937 cells
Method: (§1) The peptide was further screened in vitro in a variety of enzyme and biochemical assays. Methods employed were adapted from the scientific literature to maximize reliability and reproducibility. The primary literature reference for each assay is listed in Table 11 opposite the results for each assay.
(§2) Results presented in Table 10, “Results,” are the average of duplicate determinations, unless otherwise noted.
(§3) Reference compounds were tested concurrently at 5 concentrations as an integral part of each assay to ensure the validity of the results obtained.
(§4) Enzyme assays were performed under conditions described in Table 8, “Experimental Conditions.”. The commercial suppliers and catalog numbers of substrates employed in this study are given in Table 7, “Material Sources.” The name, commercial source, and catalog numbers of concurrent reference compounds (controls) employed in this study are given in Table 9, “Reference Compound Data.” The reaction catalyzed by each enzyme is listed in Table 8, “Experimental Conditions.”
(§5) Biochemical assay results are presented in Table 10, as the percent inhibition of specific binding or activity, and unless noted are the average of duplicate tubes tested at each concentration.

Protease - Elastase = target: T3, Protease - Elastase (Homo sapiens, UniProt P08246); test: Protease - Elastase enzyme assay; assay type: biochemical; details: 30.0 μM; average of duplicate; negative = stimulation
T3 construct: neutrophils; endogenous in cells; host or cells: human neutrophils
Method: as §1, §2, §3, §4, §5

[1] = test system: Protein Kinase C, Non-Select.; test: Protein Kinase C, Non-Select. enzyme assay; assay type: biochemical, rat; details: 300.0 μM; average of duplicate; negative = stimulation
Method: as §1, §2, §3, §4, §5

[2] = target: Ca++ Ch.-L, Benzothiazepine (Rattus norvegicus, UniProt P22002); test: Ca++ Ch.-L, Benzothiazepine radioligand binding; details: 10.0 μM; specific binding of [3H]Diltiazem; negative = stimulation
Method: (§6) The peptide was further screened in vitro in a variety of enzyme and biochemical assays. Methods employed were adapted from the scientific literature to maximize reliability and reproducibility.
as §2
(§7) Radioligand binding assays were performed under conditions described in Table 8, “Experimental Conditions.” Radioligands employed in this study are given in Table 8, and commercial sources and catalog numbers of the radioligands are provided in Table 7, “Material Sources.” Unlabeled, blocking ligands employed this study are listed in Table 8, “Experimenal Conditions,” along with the commercial sources and catalog number of the unlabeled ligand. The concurrent reference compound (control) employed in each assay is listed in Table 9, “Reference Compound Data,” along with the commercial supplier and catalog number of the compound. Where receptors have been obtained through recombinant expression techniques, the species from which the cDNA was obtained, and the type of expression system employed (mammalian, insect, bacterial) is also given Table 7.
(§8) Maximum total binding and nonspecific binding were determined each time each assay was run. Nonspecific binding was defined as the proportion of total binding not displaced by unlabeled ligand specific for the receptor. […]

TNF-α = TNF-α radioligand binding; parameters: species or system human; details: 10.0 μM; specific binding of [125I]TNF-alpha; negative = stimulation
Method: as §6, §2, §7, §8

Sarcoma 180 tumor = test: Anti-Cancer Activity Against Mouse Tumor Sarcoma 180; assay type: in vivo; details: 10 mg/kg, listed as natural peptide
Method: This model has been used extensively as indicative of neovascularization in mammals inasmuch as the tumor so implanted is quickly vascularizing.
Experimental Design: All mice were weighed at test initiation and test termination. The animals were divided into three groups. The Sarcoma 180 tumor was made up from a passage mouse to furnish […] per 0.1 mL inoculum. The cells were injected into the left leg hamstring muscle mass. The was delivered to the mice by I.P. injections, or gavage on days 1-5.
At the termination of the experiments, the mice were weighed and the left rear leg was amputated at the thigh. The skin was removed from the leg to expose the site at which the tumor was located. […].

[3] = test system: vasculature of chick embryos; test: CAM assay; assay type: in vivo
Method: Method: The method used was that described in D. Knighton, D. Ausprunk, D. Tapper, and J. Folkman, “Avascular and Vascular Phases of Tumour Growth in the Chick Embryo.” J. Cancer 35:347-355 (1977) Procedure: The test compounds were suspended in sterile saline and then applied to methylcellulose discs, ¼ inch diameter with a micropipette and allowed to air dry at a concentration of 10 μg/disc.
The test was graded as follows:
The following scores are based on the observation of at least 10 chick embryos.

T1 sequence (Q9JI35 whole entry): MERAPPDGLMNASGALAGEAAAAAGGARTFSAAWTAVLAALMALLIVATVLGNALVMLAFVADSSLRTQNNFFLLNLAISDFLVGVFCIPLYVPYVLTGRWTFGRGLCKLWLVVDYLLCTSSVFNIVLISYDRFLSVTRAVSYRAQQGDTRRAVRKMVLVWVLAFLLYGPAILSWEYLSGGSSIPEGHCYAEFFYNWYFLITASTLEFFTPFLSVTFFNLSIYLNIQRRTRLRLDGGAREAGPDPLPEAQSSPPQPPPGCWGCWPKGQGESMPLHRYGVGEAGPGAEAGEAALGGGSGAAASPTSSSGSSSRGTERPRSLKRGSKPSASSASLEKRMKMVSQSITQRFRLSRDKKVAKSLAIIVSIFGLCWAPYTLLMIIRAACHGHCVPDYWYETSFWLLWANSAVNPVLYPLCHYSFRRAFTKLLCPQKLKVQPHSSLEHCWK
Ca++ Ch.-L, Benzothiazepine, sequence (P22002 whole entry): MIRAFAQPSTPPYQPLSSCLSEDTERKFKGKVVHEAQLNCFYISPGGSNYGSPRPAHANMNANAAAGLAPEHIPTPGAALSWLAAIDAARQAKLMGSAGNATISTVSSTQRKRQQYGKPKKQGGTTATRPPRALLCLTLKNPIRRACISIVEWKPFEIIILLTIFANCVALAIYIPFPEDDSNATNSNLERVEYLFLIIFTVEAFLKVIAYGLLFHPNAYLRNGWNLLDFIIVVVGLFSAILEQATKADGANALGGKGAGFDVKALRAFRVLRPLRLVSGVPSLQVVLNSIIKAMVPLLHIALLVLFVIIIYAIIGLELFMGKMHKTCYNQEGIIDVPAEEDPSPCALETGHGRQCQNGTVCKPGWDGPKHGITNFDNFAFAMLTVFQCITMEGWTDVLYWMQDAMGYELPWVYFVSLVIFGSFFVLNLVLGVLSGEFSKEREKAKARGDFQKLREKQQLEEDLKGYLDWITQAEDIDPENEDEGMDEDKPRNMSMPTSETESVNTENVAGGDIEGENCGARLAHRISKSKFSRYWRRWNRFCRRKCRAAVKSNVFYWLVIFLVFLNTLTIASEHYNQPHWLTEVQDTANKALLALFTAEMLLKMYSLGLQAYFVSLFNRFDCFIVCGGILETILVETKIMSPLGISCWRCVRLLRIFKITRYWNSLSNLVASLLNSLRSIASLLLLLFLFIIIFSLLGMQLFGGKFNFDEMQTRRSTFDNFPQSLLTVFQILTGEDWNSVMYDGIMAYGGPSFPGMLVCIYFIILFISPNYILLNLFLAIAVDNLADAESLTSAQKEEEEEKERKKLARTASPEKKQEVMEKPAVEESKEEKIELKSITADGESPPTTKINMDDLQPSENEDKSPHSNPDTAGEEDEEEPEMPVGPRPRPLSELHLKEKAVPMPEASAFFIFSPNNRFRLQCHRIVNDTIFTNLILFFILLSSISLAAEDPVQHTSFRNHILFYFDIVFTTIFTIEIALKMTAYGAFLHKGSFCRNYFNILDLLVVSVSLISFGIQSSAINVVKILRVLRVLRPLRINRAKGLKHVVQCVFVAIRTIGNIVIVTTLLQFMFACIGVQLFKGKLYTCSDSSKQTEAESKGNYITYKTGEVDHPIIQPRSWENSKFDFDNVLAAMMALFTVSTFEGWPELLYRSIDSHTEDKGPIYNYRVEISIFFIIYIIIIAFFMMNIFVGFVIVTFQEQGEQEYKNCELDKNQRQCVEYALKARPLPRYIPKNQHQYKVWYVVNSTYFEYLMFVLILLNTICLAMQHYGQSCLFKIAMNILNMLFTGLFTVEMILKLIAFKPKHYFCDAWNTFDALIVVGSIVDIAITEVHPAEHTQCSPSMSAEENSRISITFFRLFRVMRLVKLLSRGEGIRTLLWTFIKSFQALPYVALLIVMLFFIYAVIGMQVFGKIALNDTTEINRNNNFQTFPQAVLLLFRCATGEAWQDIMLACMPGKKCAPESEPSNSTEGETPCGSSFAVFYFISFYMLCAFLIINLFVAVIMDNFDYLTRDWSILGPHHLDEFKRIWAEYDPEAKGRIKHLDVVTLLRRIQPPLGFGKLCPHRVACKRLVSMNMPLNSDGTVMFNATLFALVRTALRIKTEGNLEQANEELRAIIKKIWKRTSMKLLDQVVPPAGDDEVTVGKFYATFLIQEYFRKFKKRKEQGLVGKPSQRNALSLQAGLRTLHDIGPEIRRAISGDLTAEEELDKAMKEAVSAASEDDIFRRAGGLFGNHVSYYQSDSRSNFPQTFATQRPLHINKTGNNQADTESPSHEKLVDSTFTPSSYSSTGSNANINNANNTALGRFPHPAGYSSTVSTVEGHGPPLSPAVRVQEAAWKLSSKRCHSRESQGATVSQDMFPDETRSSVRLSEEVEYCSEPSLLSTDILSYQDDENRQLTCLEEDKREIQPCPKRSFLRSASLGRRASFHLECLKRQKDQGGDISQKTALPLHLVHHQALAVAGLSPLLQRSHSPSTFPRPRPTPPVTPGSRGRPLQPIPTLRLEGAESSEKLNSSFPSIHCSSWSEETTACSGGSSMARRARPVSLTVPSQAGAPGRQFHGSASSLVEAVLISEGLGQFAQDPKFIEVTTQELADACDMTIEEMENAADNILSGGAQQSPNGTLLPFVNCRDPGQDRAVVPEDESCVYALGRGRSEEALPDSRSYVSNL
T2 sequence (P14780 94-707): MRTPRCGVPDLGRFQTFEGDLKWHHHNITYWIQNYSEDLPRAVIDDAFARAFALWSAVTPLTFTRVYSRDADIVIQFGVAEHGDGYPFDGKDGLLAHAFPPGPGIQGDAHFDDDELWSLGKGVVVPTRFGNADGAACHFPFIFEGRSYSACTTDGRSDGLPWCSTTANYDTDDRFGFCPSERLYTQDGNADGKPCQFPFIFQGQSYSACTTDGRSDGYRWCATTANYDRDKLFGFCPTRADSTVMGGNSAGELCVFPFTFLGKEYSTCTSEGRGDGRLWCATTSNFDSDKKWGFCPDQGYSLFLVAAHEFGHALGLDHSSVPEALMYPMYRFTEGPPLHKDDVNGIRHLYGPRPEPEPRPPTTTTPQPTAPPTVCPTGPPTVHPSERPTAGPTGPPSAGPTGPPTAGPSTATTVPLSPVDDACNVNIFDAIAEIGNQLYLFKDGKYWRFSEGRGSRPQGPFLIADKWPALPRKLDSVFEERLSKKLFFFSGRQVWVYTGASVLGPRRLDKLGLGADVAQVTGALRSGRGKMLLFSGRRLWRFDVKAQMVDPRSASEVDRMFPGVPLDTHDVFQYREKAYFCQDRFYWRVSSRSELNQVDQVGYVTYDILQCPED
T3 sequence (P08246 30-267): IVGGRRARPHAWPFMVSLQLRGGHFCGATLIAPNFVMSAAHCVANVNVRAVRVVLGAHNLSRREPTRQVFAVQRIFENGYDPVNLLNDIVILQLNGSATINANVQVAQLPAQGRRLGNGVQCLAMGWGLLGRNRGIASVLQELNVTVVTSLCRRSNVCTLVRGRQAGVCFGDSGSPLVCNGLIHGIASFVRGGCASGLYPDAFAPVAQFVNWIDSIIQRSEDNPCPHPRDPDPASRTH

## LEU-PRO-PRO-SER-ARG [Peptide]
Galanin receptor; average of two preparations
  Antagonism, Ave.: 12%
Galanin receptor; average of two preparations, Galanin 0.1 μM
  Agonism, Ave.: 0%
Galanin receptor; individual preparation, contraction within 5 minutes relative to 0.1 μM galanin response, Galanin 0.1 μM
  Agonism: 0%
Galanin receptor; individual preparation, reduction of 0.1 μM galanin-induced contractile response
  Antagonism: 24% and 0%
Histamine H3 receptor; average of two preparations, R(α)-Methylhistamine 0.3 μM
  Agonism, Ave.: 4%
Histamine H3 receptor; average of two preparations
  Antagonism, Ave.: 4%
Histamine H3 receptor; individual preparation, reduction of 0.3 μM R(α)-methylhistamine-induced relaxation
  Antagonism: 7% and 0%
Histamine H3 receptor; individual preparation, relaxation within 5 minutes relative to 0.3 μM R-α-methylhistamine, R(α)-Methylhistamine 0.3 μM (0.1 printed in r13)
  Agonism: 0% and 4%
Collagenase IV
  % Inhibition: 2%
Protease - Elastase
  % Inhibition: −11%
[1]
  % Inhibition: −6%
[2]
  % Inhibition: 18%
TNF-α
  % Inhibition: −11%
Sarcoma 180 tumor; I.P. injections or gavage on days 1-5, 6 mice
  % tumor inhibition: 99.0%
Sarcoma 180 tumor; net tumor weight, I.P. injections or gavage on days 1-5, 6 mice
  Mean tumor wt. gain, gm: 0.03 gm
[3]; 10 μg/disc on methylcellulose discs, at least 10 chick embryos, graded 0 to +4
  CAM assay antiangiogenesis score: 3.6
[3]; CAM assay, 10 μg/disc
  inhibited proliferation of vacularization: approximately 95%

From US6767890B1, “Peptides having anti-cancer and anti-inflammatory activity” (priority 1998, dated 2004)
